Test system: Oct4-introduced Sox10::eGFP fibroblasts
Test: FACS analysis of Sox10::eGFP reporter expression after low molecular weight substance treatment
Format: cell-based, human
Details: 10 μM forskolin added to ATVP medium
From the text: The inventors have established conditions capable of inducing neural stem cells from mouse cells only with a low molecular weight substance without gene introduction (KR 10-1357402). Accordingly, to establish new conditions capable of inducing human somatic cells into OPCs on the basis of the low molecular weight substance that had been established in the previous study, a low molecular weight substance was selected using a Sox10 reporter system (Sox10::eGFP), which is a gene known to be important in development of oligodendrocytes (FIG. 1). When Oct4 gene-introduced cells were cultured in a reprogramming medium (RM: DMEM with high Glucose+5% knock out serum replacement (KSR)+1% penicillin/streptomycin+1% non-essential amino acids+20 ng/ml basic FGF (bFGF)+20 ng/ml human recombinant platelet derived growth factor (PDGF)+50 μg/ml ascorbic acid), one week after induction, it was confirmed that a cell length was shorter and a cell size was smaller through mesenchymal to epithelial transition (MET), thereby forming an epithelial-like colony. […]

In the case of `C=C[C@@]1(C)CC(=O)[C@]2(O)[C@@]3(C)[C@@H](O)CCC(C)(C)[C@@H]3[C@H](O)[C@H](OC(C)=O)[C@@]2(C)O1` [forskolin], the “Sox10::eGFP expression (GFP+ distribution, FACS)” value is reported as 3.31%.

Source: patent US11572540B2, “Method for inducing oligodendrocyte precursor cells from OCT4-induced human somatic cells through direct reprogramming” (Stemlab Inc., priority 2015, dated 2023)
